These molecules were tested against recombinant HCV NS5B (genotype 1b) NS5BCΔ21 (Hepatitis C virus genotype 1b, UniProt P26663) (assay: in vitro NS5B RNA dependent RNA polymerase). Conditions: Supplementary data, Table S1.
Format: biochemical
For `O=C(O)CN1C(=O)CSC1=S` [2-(4-oxo-2-thioxothiazolidin-3-yl)acetic acid], the “NS5B inhibitory activity (in words)” value was “either inactive or poorly active”.
`O=C(O)CN1C(=O)C(=Cc2ccccc2)SC1=S` [2-(5-benzylidene-4-oxo-2-thioxothiazolidin-3-yl)acetic acid] was tested, and the “NS5B inhibitory activity (in words)” value was “either inactive or poorly active”.
With `CCN1C(=O)C(=Cc2ccc(Cl)cc2Cl)SC1=S` [5-(2,4-dichlorobenzylidene)-3-ethyl-2-thioxothiazolidin-4-one] the “NS5B inhibitory activity (in words)” value was “either inactive or poorly active”.

Source: article PMC2956004 (Bioorganic & medicinal chemistry, 2010)
